Data taken from PMC7782793, “Hydroxamic acid-modified peptide microarrays for profiling isozyme-selective interactions and inhibition of histone deacetylases” (Nature Communications, 2021).
Where “and” joins values, the source holds several entries; their conditions need not be identical. Equal entries are not always repeated. Marks after values point to notes of the source that are not given here. Non-standard residues stand in square brackets, D forms with d. Residues, ends and D or L forms follow the SMILES beside them. *: point of attachment. Asu = N[C@@H](CCCCCC(=O)O)C(=O)O; NHOH = ON*

How the values were obtained:
HDAC8 = molecular target: T1, HDAC8 (Homo sapiens, UniProt Q9BY41); assay: HDAC inhibition assay (fluorogenic, Ac-Leu-Gly-Lys(Tfa)-AMC); assay type: biochemical; details: for HDAC8 dose-response data (relative enzyme activity, replicate values), Fig. 6 + S. Fig. 10: two replicate columns per inhibitor; for HDAC8 dose-response data (relative enzyme activity), Fig. 6 + S. Fig. 10: duplicate columns
T1 construct: HDAC8 (full length, C-terminal His tag, BPS Bioscience, cat. #: 50008); purchased BPS Bioscience 50008
T1 sequence (Q9BY41 1-377): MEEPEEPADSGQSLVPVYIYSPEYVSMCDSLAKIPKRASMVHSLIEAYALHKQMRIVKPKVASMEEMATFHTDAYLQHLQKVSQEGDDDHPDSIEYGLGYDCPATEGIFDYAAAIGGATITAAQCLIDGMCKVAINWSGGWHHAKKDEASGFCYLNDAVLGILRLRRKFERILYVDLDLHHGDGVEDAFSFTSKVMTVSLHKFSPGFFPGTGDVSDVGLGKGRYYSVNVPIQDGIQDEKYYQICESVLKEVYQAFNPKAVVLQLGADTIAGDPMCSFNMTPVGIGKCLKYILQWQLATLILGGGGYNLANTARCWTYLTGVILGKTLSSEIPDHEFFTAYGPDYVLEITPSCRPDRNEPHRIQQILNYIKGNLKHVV

HDAC6 = molecular target: T2, HDAC6 (Homo sapiens, UniProt Q9UBN7); assay: HDAC inhibition assay (fluorogenic, Ac-Leu-Gly-Lys(Ac)-AMC); assay type: biochemical; details: HDAC6, replicates
T2 construct: HDAC6 (full length, BPS Bioscience, cat. #: 50056); purchased BPS Bioscience 50056
T2 sequence (Q9UBN7 1-1215): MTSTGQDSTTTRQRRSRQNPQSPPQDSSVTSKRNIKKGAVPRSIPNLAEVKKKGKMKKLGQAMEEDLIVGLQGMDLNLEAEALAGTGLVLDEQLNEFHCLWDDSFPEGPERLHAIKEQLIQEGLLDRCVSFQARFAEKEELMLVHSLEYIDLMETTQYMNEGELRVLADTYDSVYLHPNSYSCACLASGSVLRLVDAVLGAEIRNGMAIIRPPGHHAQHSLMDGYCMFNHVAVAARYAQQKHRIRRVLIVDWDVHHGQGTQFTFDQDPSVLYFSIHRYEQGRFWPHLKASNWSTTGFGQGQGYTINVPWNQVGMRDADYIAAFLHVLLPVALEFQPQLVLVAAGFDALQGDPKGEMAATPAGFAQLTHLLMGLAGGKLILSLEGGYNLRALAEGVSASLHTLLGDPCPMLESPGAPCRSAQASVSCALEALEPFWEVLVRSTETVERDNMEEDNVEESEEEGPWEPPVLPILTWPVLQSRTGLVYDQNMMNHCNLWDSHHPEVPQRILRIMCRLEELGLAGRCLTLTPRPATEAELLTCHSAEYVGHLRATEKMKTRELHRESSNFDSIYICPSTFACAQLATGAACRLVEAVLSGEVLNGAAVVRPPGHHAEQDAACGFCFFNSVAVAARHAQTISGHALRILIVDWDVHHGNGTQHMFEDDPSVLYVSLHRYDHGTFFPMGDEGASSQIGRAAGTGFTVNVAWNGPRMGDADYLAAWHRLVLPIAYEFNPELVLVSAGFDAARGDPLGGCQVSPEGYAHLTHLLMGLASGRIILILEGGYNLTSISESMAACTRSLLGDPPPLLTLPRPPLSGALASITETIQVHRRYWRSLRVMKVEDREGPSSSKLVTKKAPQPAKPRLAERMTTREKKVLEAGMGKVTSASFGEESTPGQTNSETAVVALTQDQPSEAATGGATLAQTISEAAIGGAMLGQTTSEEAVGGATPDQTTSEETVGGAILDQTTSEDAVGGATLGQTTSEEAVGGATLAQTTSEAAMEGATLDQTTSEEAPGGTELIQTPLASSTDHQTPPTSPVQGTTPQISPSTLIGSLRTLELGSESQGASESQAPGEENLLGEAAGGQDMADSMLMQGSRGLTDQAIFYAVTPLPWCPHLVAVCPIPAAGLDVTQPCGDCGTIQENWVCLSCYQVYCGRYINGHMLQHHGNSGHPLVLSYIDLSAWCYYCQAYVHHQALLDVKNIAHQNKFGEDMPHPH

HDAC3/NCoR2 [1] = molecular target: T3, HDAC3/NCoR2 (Homo sapiens, UniProt O15379); assay: Recombinant HDAC µSPOT microarray binding assay;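 also: peptide spots on cellulose slides incubated with rising HDAC enzyme concentrations, imaged together, four-parameter logistic fit, EC50 is enzyme concentration giving half-maximal binding signal, two experiments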
T3 construct: HDAC3/NCoR2 (full length, C-terminal His tag, NCoR2 N-terminal GST tag); purchased BPS Bioscience 50003

HDAC1 [2] = molecular target: T4, HDAC1 (Homo sapiens, UniProt Q13547); assay: Recombinant HDAC µSPOT microarray binding assay;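 also: slides with spotted peptides incubated with six HDAC concentrations in HEPES buffer pH 7.4, spot intensities fitted by four-parameter logistic, EC50 as enzyme concentration giving half-maximal binding signal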
T4 construct: HDAC1 (full length, C-terminal His tag, C-terminal FLAG tag, BPS Bioscience, cat. #: 50051); FLAG (C); purchased BPS Bioscience 50051

HDAC1 [3] = molecular target: T4, HDAC1; assay: HDAC inhibition assay (fluorogenic, Ac-Leu-Gly-Lys(Ac)-AMC); assay type: biochemical; details: for HDAC1 dose-response data (relative enzyme activity), Fig. 6 + S. Fig. 10: duplicate columns
HDAC2 = molecular target: T5, HDAC2 (Homo sapiens, UniProt Q92769); assay: as above; assay type: biochemical; details: for HDAC2 dose-response data (relative enzyme activity), Fig. 6 + S. Fig. 10: duplicate columns
T5 construct: HDAC2 (full length, C-terminal His tag, BPS Bioscience, cat. #: 50002); purchased BPS Bioscience 50002

HDAC3/NCoR2 [4] = molecular target: T3, HDAC3/NCoR2; assay: as above; assay type: biochemical; details: for HDAC3 dose-response data (relative enzyme activity), Fig. 6 + S. Fig. 10: duplicate columns
[5] = log[inhibitor(M)] -10,5850266520292*, whole line marked with asterisks

T3 sequence (O15379 whole entry): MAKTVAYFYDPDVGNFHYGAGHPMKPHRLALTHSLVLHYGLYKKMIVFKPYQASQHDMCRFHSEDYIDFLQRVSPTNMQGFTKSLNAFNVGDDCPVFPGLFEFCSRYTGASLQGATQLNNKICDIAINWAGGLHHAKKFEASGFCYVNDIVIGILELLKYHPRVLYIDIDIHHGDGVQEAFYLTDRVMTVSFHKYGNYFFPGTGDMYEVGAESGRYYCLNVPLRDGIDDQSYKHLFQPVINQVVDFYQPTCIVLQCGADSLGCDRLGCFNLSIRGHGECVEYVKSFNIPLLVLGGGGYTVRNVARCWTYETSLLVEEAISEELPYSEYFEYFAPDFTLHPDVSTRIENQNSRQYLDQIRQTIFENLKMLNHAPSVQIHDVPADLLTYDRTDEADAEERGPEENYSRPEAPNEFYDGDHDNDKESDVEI
T3 sequence (Q9Y618 389-480 partner limits assumed): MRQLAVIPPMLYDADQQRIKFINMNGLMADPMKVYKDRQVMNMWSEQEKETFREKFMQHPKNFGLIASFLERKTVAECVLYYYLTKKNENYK
T5 sequence (Q92769 whole entry): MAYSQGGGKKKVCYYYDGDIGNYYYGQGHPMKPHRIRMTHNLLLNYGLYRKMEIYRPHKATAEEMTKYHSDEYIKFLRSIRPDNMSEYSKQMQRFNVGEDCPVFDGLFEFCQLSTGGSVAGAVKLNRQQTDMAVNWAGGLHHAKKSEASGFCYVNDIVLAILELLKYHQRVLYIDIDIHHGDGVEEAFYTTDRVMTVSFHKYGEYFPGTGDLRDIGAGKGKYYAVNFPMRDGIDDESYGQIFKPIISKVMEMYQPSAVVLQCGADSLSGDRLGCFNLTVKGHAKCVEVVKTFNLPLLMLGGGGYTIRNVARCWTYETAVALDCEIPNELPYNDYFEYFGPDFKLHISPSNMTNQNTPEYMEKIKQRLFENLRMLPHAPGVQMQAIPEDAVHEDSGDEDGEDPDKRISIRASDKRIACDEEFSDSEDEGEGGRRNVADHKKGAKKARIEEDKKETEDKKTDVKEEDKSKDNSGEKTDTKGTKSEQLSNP
T4 sequence (Q13547 whole entry): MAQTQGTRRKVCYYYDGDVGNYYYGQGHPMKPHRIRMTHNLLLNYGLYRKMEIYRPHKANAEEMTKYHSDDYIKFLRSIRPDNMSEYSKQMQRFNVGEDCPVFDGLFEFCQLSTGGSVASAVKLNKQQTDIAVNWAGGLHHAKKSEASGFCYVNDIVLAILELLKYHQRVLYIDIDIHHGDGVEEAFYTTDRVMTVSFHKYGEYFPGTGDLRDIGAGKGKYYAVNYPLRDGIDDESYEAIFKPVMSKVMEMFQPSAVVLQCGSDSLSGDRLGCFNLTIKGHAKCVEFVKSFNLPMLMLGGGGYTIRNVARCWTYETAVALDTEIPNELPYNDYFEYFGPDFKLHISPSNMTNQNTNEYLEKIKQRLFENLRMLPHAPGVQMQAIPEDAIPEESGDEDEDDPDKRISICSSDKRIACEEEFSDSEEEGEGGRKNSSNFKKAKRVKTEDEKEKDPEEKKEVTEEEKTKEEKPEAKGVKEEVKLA

## CC(=O)N[C@@H](C)C(=O)N[C@@H](CCCNC(=N)N)C(=O)N[C@@H](CCCCN)C(=O)N[C@@H](CO)C(=O)N[C@H](C(=O)NCC(=O)NCC(=O)N[C@@H](CCCCN)C(=O)N[C@@H](C)C(=O)N1CCC[C@H]1C(=O)N[C@@H](CCCNC(=N)N)C(=O)N[C@@H](CCCCCC(=O)NO)C(=O)N[C@@H](CCC(N)=O)C(=O)N[C@@H](CC(C)C)C(=O)N[C@@H](C)C(=O)N[C@H](C(=O)N[C@@H](Cc1c[nH]c2ccccc12)C(N)=O)[C@@H](C)O)[C@@H](C)O [13a] (Ac-ARKSTGGKAPR[Asu](NHOH)QLATW-NH2)
HDAC8
  Ki: 5.1 ± 0.03 nM
HDAC8; Inhibitor conc [M] -8.49485 (log)
  HDAC8 dose-response data (relative enzyme activity, replicate values), Fig. 6 + S. Fig. 10: 71.9184 and 69.3811
HDAC8; Inhibitor conc [M] -9.19382 (log)
  HDAC8 dose-response data (relative enzyme activity, replicate values), Fig. 6 + S. Fig. 10: 90.9342 and 89.4061
HDAC8; Inhibitor conc [M] given as -7.09691 (log)
  HDAC8 dose-response data (relative enzyme activity, replicate values), Fig. 6 + S. Fig. 10: 21.0963 and 19.8616
HDAC8; Inhibitor conc [M] given as -7.79588 (log)
  HDAC8 dose-response data (relative enzyme activity, replicate values), Fig. 6 + S. Fig. 10: 40.3806 and 38.3863
HDAC8; Inhibitor conc [M] given as -9.89279 (log)
  HDAC8 dose-response data (relative enzyme activity, replicate values), Fig. 6 + S. Fig. 10: 99.1075 and 97.7
HDAC8; Inhibitor conc [M] given as -10.585 (log)
  HDAC8 dose-response data (relative enzyme activity, replicate values), Fig. 6 + S. Fig. 10: 102.311 and 100.47
HDAC8; Inhibitor conc [M] -4.30103
  HDAC8 dose-response data (relative enzyme activity), Fig. 6 + S. Fig. 10: 1.362 and 1.423
HDAC8; Inhibitor conc [M] -5
  HDAC8 dose-response data (relative enzyme activity), Fig. 6 + S. Fig. 10: 4.393 and 4.0005
HDAC8; Inhibitor conc [M] -5.69897
  HDAC8 dose-response data (relative enzyme activity), Fig. 6 + S. Fig. 10: 9.7232 and 9.03
HDAC8; Inhibitor conc [M] -6.39794
  HDAC8 dose-response data (relative enzyme activity), Fig. 6 + S. Fig. 10: 13.9289 and 13.185
HDAC6; log[inhibitor(M)] -4.30103
  residual enzymatic activity relative to control wells: -1.734 and 1.049
HDAC6; log[inhibitor(M)] -5
  residual enzymatic activity relative to control wells: -1.228 and 1.2154
HDAC6; log[inhibitor(M)] -5.69897
  residual enzymatic activity relative to control wells: 0.01806 and 2.993
HDAC6; log[inhibitor(M)] -6.39794
  residual enzymatic activity relative to control wells: 4.479 and 8.186
HDAC6; log[inhibitor(M)] -7.09691
  residual enzymatic activity relative to control wells: 18.6761 and 22.7019
HDAC6; log[inhibitor(M)] -7.79588
  residual enzymatic activity relative to control wells: 46.5457 and 51.1177
HDAC6; log[inhibitor(M)] -8.49485
  residual enzymatic activity relative to control wells: 65.89 and 75.8407
HDAC6; log[inhibitor(M)] -9.19382
  residual enzymatic activity relative to control wells: 72.6813 and 83.6344
HDAC6; log[inhibitor(M)] -9.89279
  residual enzymatic activity relative to control wells: 83.1572 and 99.4226
HDAC6; log[inhibitor(M)] -10.585
  residual enzymatic activity relative to control wells: 85.7762 and 94.8721
HDAC3/NCoR2 [1]
  EC50: 4.17 nM
HDAC1 [2]
  EC50: > 25.1 nM
HDAC1 [3]
  Ki: 17.9 ± 0.4 nM
HDAC1 [3]; log[inhibitor(M)] -5
  HDAC1 dose-response data (relative enzyme activity), Fig. 6 + S. Fig. 10: 5.502 and 6.317
HDAC1 [3]; log[inhibitor(M)] -5.69897
  HDAC1 dose-response data (relative enzyme activity), Fig. 6 + S. Fig. 10: 16.4811 and 18.8712
HDAC1 [3]; log[inhibitor(M)] -6.39794
  HDAC1 dose-response data (relative enzyme activity), Fig. 6 + S. Fig. 10: 32.4053 and 35.9654
HDAC1 [3]; log[inhibitor(M)] -7.09691
  HDAC1 dose-response data (relative enzyme activity), Fig. 6 + S. Fig. 10: 44.2666 and 47.9606
HDAC1 [3]; log[inhibitor(M)] -7.79588
  HDAC1 dose-response data (relative enzyme activity), Fig. 6 + S. Fig. 10: 60.5299 and 62.3252
HDAC1 [3]; log[inhibitor(M)] -8.49485
  HDAC1 dose-response data (relative enzyme activity), Fig. 6 + S. Fig. 10: 80.9321 and 81.9464
HDAC1 [3]; log[inhibitor(M)] -9.19382
  HDAC1 dose-response data (relative enzyme activity), Fig. 6 + S. Fig. 10: 95.5469 and 95.3965
HDAC1 [3]; log[inhibitor(M)] -9.89279
  HDAC1 dose-response data (relative enzyme activity), Fig. 6 + S. Fig. 10: 98.1308 and 82.1941
HDAC1 [3]; [5]
  HDAC1 dose-response data (relative enzyme activity), Fig. 6 + S. Fig. 10: 98,3704548* and 94,2568861*
HDAC2; log[inhibitor(M)] -5
  HDAC2 dose-response data (relative enzyme activity), Fig. 6 + S. Fig. 10: 9.3053 and 9.139
HDAC2; log[inhibitor(M)] -5.69897
  HDAC2 dose-response data (relative enzyme activity), Fig. 6 + S. Fig. 10: 27.8438 and 26.8455
HDAC2; log[inhibitor(M)] -7.79588
  HDAC2 dose-response data (relative enzyme activity), Fig. 6 + S. Fig. 10: 88.6532 and 82.3131
HDAC2; [5]
  HDAC2 dose-response data (relative enzyme activity), Fig. 6 + S. Fig. 10: 104,855804* and 98,2337504*
HDAC2; resynthesized peptide in solution, Cheng-Prusoff, n = 2
  Ki: 60 ± 1 nM
HDAC3/NCoR2 [4]
  Ki: 2.14 ± 0.02 nM
HDAC3/NCoR2 [4]; log[inhibitor(M)] -4.30103
  HDAC3 dose-response data (relative enzyme activity), Fig. 6 + S. Fig. 10: 0.9488 and 1.386
HDAC3/NCoR2 [4]; log[inhibitor(M)] -5
  HDAC3 dose-response data (relative enzyme activity), Fig. 6 + S. Fig. 10: 3.154 and 2.6883
HDAC3/NCoR2 [4]; log[inhibitor(M)] -5.69897
  HDAC3 dose-response data (relative enzyme activity), Fig. 6 + S. Fig. 10: 8.657 and 8.271
HDAC3/NCoR2 [4]; log[inhibitor(M)] -6.39794
  HDAC3 dose-response data (relative enzyme activity), Fig. 6 + S. Fig. 10: 15.6479 and 15.4413
HDAC3/NCoR2 [4]; log[inhibitor(M)] -7.09691
  HDAC3 dose-response data (relative enzyme activity), Fig. 6 + S. Fig. 10: 23.7196 and 23.3659
HDAC3/NCoR2 [4]; log[inhibitor(M)] -7.79588
  HDAC3 dose-response data (relative enzyme activity), Fig. 6 + S. Fig. 10: 41.0048 and 43.3286
HDAC3/NCoR2 [4]; log[inhibitor(M)] -8.49485
  HDAC3 dose-response data (relative enzyme activity), Fig. 6 + S. Fig. 10: 70.4254 and 74.0708
HDAC3/NCoR2 [4]; log[inhibitor(M)] -9.19382
  HDAC3 dose-response data (relative enzyme activity), Fig. 6 + S. Fig. 10: 90.1455 and 92.6434
HDAC3/NCoR2 [4]; log[inhibitor(M)] -9.89279
  HDAC3 dose-response data (relative enzyme activity), Fig. 6 + S. Fig. 10: 95.7935 and 97.884
HDAC3/NCoR2 [4]; [5]
  HDAC3 dose-response data (relative enzyme activity), Fig. 6 + S. Fig. 10: 98,4914638* and 97,1472426*
HDAC3/NCoR2 [4]; resynthesized peptides, from Ki
  selectivity for HDAC3 vs. HDACs 1 and 2: > 8 fold
